Patent publication US20060189520A1, “Treatment of diabetes” (priority 2002, published 2006)
Where “and” joins values, the source holds several entries; their conditions need not be identical. Equal values may be shown once.

Tested on: NOD mice with recent-onset diabetes
Experiment: GLP-1 and gastrin therapy of recent-onset diabetes in NOD mice, fasting blood glucose
Format: in vivo, mouse
Details: NOD female mice, GLP-1 100 μg/kg/day, gastrin 3 μg/kg/day, i.p. twice a day
Excerpt: In this example, the effect of treatment by a combination of GLP-1 and gastrin was examined in NOD mice with recent onset diabetes, to determine whether administration of both GLP-1 and gastrin would prevent severe hyperglycemia, ketoacidosis and death as well as increase pancreatic insulin content in NOD mice with recent-onset diabetes. The I.N.T.™ composition used was gastrin as synthetic human gastrin I having 17 amino acid residues with a Leu residue at amino acid position 15. The GLP-1 used was GLP-1 which is the biologically active fragment of human/mouse GLP-1 (having residues at positions 7-36 compared to the precursor from which the fragment is processed; obtained from Bachem H6795).
Non-obese diabetic (NOD) female mice, ages 12-14 weeks, were monitored for development of onset of diabetes (fasting blood glucose >8.0 to 15 mmol/l), and within 48 hours after onset of symptoms, two groups of mice were each treated as follows: one group was treated with vehicle only; and the other group was administered 100 μg/kg/day of GLP-1, each treatment administered via the intraperitoneal route twice daily.
Therapy was administered for 14 days. Animals were monitored weekly for fasting blood glucose (FBG) levels. FBG levels were measured at about 12 hours after food had been withdrawn, and 24 hours after the last peptide or vehicle injection. Upon cessation of therapy, all mice were monitored for FBG levels for the next 4 weeks (weeks 2-6) so as to determine whether prevention of hyperglycemia persisted after termination of therapeutic treatment.
The protocol includes sampling of these mice for data again at 6 weeks, and blood collected for assay of FBG and plasma C-peptide, and the mice are sacrificed for pancreatic insulin determinations and scoring of islet inflammation (insulitis). From the outset of treatment, mice received neither insulin-replacement treatment nor immunosuppression. The following parameters are assessed: survival rates, pancreatic insulin levels, presence of islet inflammation and fasting blood glucose levels.

“GLP-1: biologically active fragment of human/mouse GLP-1 (having residues at positions 7-36); obtained from Bachem H6795” was tested, and the “FBG (mM) at day: 0” value (day 0 (start of treatment)) was 12.3 ± 0.9 mM, the “FBG (mM) at day: 7” value (day 7 of treatment) was 14.1 ± 1.8 mM and the “FBG (mM) at day: 14” value (day 14 (end of treatment)) was 15.3 ± 2.6 mM. For the same substance, the “FBG (mM) at day: 18” value (day 18 (treatment stopped at 14 days)) was 15.8 mM and 15.8 ± 4.2 mM.
